Data set [1] deals with GzmB activity in 4T1 tumors. The format is in vivo, mouse. The method, then: Figure 5. In vivo imaging of GzmB activity in mouse tumor models. (A) Schematic illustration of the timeline of immunotherapy and real-time NIRF-imaging. (B) Measurement of tumor growth comparing immunotherapy (ICB combination)-treated vs. untreated mice. Data points are shown as mean with SD. (C) Whole animal 2D fluorescence images of immunotherapy-treated mice obtained after 2, 4, 8 and 24 h post-injection at Ex/Em: 640/680 nm. […] (D) Quantification of in vivo NIRF signals in the tumors. […] (F) Quantification of ex vivo NIRF signals in the organs (normalized to spleen). […] (G) Immunoblotting analysis of GzmB expression in tumor homogenates. Briefly, pieces of tumors were transferred to a flask containing 1 mL RIPA lysis buffer on ice and constantly grinded for 2 min. Homogenates were collected by centrifugation and 20 μg of proteins were analyzed by SDS-PAGE and immunoblotting. (H) Representative confocal microscopy images of tumor sections stained with DAPI (blue) and CD8α (green)/GzmB (yellow) antibodies and Cy5 (red) detection. (I) Fraction (%) of CD8+ cells in the tumors analyzed by flow cytometry. (J) Mean fluorescence intensity (MFI) of Cy5 signals determined by flow cytometry after dissociated tumors were treated with 10 (5 μM) for 2 h at 37 °C.
(§1) 3-5 mice/group. For all studies, mice were monitored by daily observation and serial tumor measurements and body weights.
Mice were treated with 20 mg/kg BEC i.v., 10 mg/kg anti-PD1 i.p., 5 mg/kg anti-CTLA4 i.p. or a combination of 10 mg/kg anti-PD-1 and 5 mg/kg anti-CTLA4. All the treatments were administered into living mice bearing 4T1 tumor every three days for three times (q3dx3). Dosing was administered at 0.01 ml/g body weight. On day 9 post-treatment, the mice were injected with 2 nmol/g GzmB qABP i.v., followed by fluorescence imaging at 2, 4, 8, and 24 h. Following the last imaging time point, mice were euthanized, and tissues were collected for ex vivo imaging.
E. In vivo and ex vivo fluorescence imaging (FLI)
All fluorescence imaging (FLI) were performed using Xenogen IVIS Spectrum (Revvity Health Sciences, Inc., Hopkinton, Massachusetts), which was previously owned by PerkinElmer. Prior to in vivo or ex vivo FLI, quality control of the IVIS system was performed with XFM-2X fluorescent phantom mouse (Revvity Health Sciences, Inc., Hopkinton, Massachusetts). The total radiant efficiency of AF680 phantom was 1.44 x 109 ± 5.7 x 107 at 40% threshold for the entire study.
Both in vivo and ex vivo FLI of mice including dye phantom was performed with Ex/Em: 640/680 nm. The wavelength difference between excitation and emission was large enough to prevent signal contamination by mixing. The maximum exposure time was fixed at 120 seconds to avoid background noise. In vivo imaging used 8 binning, 2 f-stop, and 1.5 cm sample height, whereas ex vivo imaging used 8 binning, 2–4 f-stop, and 0.5 cm sample height. The quantified data are presented as radiant efficiency or normalized radiant efficiency by area. […]
Fixed/Permeabilized […]
cells were resuspended 100 µL 1x intracellular staining perm wash buffer and incubated with FITC-conjugated CD8 antibody (BioLegend #100706) at 0 °C for 1 h. After centrifugation, cell pellets were washed with 1x intracellular staining perm wash buffer (twice) and resuspended in the appropriate amount of cell staining buffer (BioLegend # 420201) and analyzed with flow […]

Data set [2] concerns GzmB activity in NK-92 cells. In words: Flow cytometry analysis of protein labeling by ABPs in NK-92 and MDA-MB-231 cells. Particulars: 5 μM. The class given is cell-based, human. The method, then:
Figure 3. GzmB ABPs selectively label active GzmB in cells. (A) Gel-based analysis of GzmB labeling by ABPs in NK-92 cells. 5x10^5 NK-92 cells were incubated with each ABP at varying concentrations for 2 h at 37 °C. After cell lysis, protein samples were analyzed by SDS-PAGE and in-gel fluorescence scanning for Cy5 signal. Expression of GzmB was confirmed by western blotting. (B) Gel-based analysis of GzmB labeling by qABP 10 in different cells. 2x10^6 NK-92, MDA-MB-231, Jurkat, and HEK cells were incubated with compound 10 (5 μM) at 37 °C for 2 h. After cell lysis, protein samples were analyzed by SDS-PAGE and in-gel fluorescence scanning for Cy5 signal. […] Protein samples were analyzed by SDS-PAGE and in-gel fluorescence scanning for Cy5 signal. […] Top: Histogram; Bottom: Mean fluorescence intensity (MFI) in MDA-MB-231 cells. […]
Histogram of flow cytometry data for NK-92 cells incubated with qABP 10. Right: Quantification of mean Cy5 fluorescence intensity. […]
as §1
Mice were treated with 20 mg/kg BEC i.v., 10 mg/kg anti-PD1 i.p., 5 mg/kg anti-CTLA4 i.p. or a combination of 10 mg/kg anti-PD-1 and 5 mg/kg anti-CTLA4. […] On day 9 post-treatment, the mice were injected with 2 nmol/g GzmB qABP i.v., followed by fluorescence imaging at 2, 4, 8, and 24 h. […]

Turning to `CC[C@H](C)[C@H](NC(=O)CCCCCN1/C(=C/C=C/C=C/C2=[N+](CC)c3ccc(S(=O)(=O)O)cc3C2(C)C)C(C)(C)c2cc(S(=O)(=O)O)ccc21)C(=O)N[C@@H](CCC(=O)O)C(=O)N1CCC[C@H]1C(=O)NC(CS(=O)(=O)O)P(=O)(Oc1ccc(CCNC(=O)C2CCN(S(=O)(=O)c3ccccc3-c3c4ccc(=[N+]5CCc6ccccc65)cc-4oc4cc(N5CCc6ccccc65)ccc34)CC2)cc1)c1ccccc1` (stereo partly shown) [Compound 10, Cy5-IEPCya^PhP-QSY21], the “in vivo NIRF signal at 2 h, mouse #61 (brightest)” value in data set [1] (12.5 nmol/100 μL i.v., 2 h post-injection, ICB combination-treated mouse) was 7.26x10^9 p s^−1 cm^−2 sr^−1. In addition, in data set [1] (50 nmol i.v., imaged at 2, 4, 8 and 24 h), the “time post-injection of brightest NIRF signal within tumors” value is listed as 2 h. For the same compound, the “tumor-to-background ratio (TBR), ex vivo, normalized to spleen, mouse #57” value in data set [1] (50 nmol i.v., organs harvested 24 h post-injection) came to 15.18. Moreover, the “in vivo fluorescence signal in tumor at 2 h, mouse #57 (highest)” value in data set [1] (50 nmol/100 μL i.v., 2 h post-injection, ICB combination-treated mouse) is listed as 4.02x10^10 p s^−1 cm^−2 sr^−1. The “clearance route of excess probe” value in data set [1] (second highest signals in bladder (2 h in vivo) and kidneys (24 h ex vivo)) is on record as “cleared through the renal pathway”. Also, in data set [2], the “fluorescence intensity in NK-92 cells relative to GzmB non-expressing MDA-MB-231 cells” value is on record as “approximately 9.1 fold”. Further, in data set [2] (37 °C, 2 h), the “signal-to-noise (S/N), NK-92 vs MDA-MB-231 cells” value came out at 9.09.

Source of the values: paper doi:10.1101/2025.03.13.643086, “Granzyme-targeting quenched activity-based probes for assessing tumor response to immunotherapy” (bioRxiv, 2025).
